Laboratory results: ChEMBL document CHEMBL1201862, “PubChem BioAssay data set” (2004)
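A five-concentration, 48-hour dose response in 96-well plates underlies each endpoint, interpolated linearly between surrounding concentrations. At the GI50, growth is halved.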 Active and inactive are the calls of the source. Cut-off read from the data, not from the text of the source: active = GI50 up to about 1.1 µM and inactive = higher. Peptide text beside a SMILES is read from it. * marks the point of attachment. OSu = O=C1CCC(=O)N1O*

What was measured:
Assay in all cases: DTP human tumour cell line panel, 48 h
HCT-116 = test system: HCT-116
SK-MEL-2 = test system: SK-MEL-2
Hs-578T = test system: Hs-578T
SNB-75 = test system: SNB-75
MDA-MB-231 = test system: MDA-MB-231
K562 = test system: K562
PC-3 = test system: PC-3
HCT-15 = test system: HCT-15
OVCAR-5 = test system: OVCAR-5
RPMI-8226 = test system: RPMI-8226
HL-60 = test system: HL-60
OVCAR-3 = test system: OVCAR-3
SF-268 = test system: SF-268
Malme-3M = test system: Malme-3M
BT-549 = test system: BT-549
NCI-H226 = test system: NCI-H226
COLO 205 = test system: COLO 205
HCC 2998 = test system: HCC 2998
NCI-H522 = test system: NCI-H522
HOP-92 = test system: HOP-92

Row | SMILES | GI50 (HCT-116) | GI50 (SK-MEL-2) | GI50 (Hs-578T) | GI50 (SNB-75) | GI50 (MDA-MB-231) | GI50 (K562) | GI50 (PC-3) | GI50 (HCT-15) [µM] | GI50 (OVCAR-5) | GI50 (RPMI-8226) | GI50 (HL-60) | GI50 (OVCAR-3) | GI50 (SF-268) | GI50 (Malme-3M) | GI50 (BT-549) | GI50 (NCI-H226) | GI50 (COLO 205) | GI50 (HCC 2998) | GI50 (NCI-H522) | GI50 (HOP-92)
1 | c1ccc([P+](c2ccccc2)(c2ccccc2)c2ccc([P+](c3ccccc3)(c3ccccc3)c3ccccc3)c3ccccc23)cc1 | 40 µM (inactive) | > 100 µM (inactive) | 47.8 µM (inactive) | 70.1 µM (inactive) | > 100 µM (inactive) | 29.6 µM (inactive) | 70.6 µM (inactive) | > 100 | > 100 µM (inactive) | 57.1 µM (inactive) | 41.6 µM (inactive) | 46.3 µM (inactive) | > 100 µM (inactive) | > 100 µM (inactive) | 51.2 µM (inactive) | > 100 µM (inactive) | 52.7 µM (inactive) | 49.2 µM (inactive) | 44.4 µM (inactive) | 
2 | COc1cc2cccc(N)c2cc1OC | > 100 µM (inactive) | > 100 µM (inactive) | > 100 µM (inactive) | > 100 µM (inactive) | > 100 µM (inactive) | > 100 µM (inactive) | > 100 µM (inactive) | > 100 | > 100 µM (inactive) | > 100 µM (inactive) | > 100 µM (inactive) | > 100 µM (inactive) | > 100 µM (inactive) | > 100 µM (inactive) | > 66.7 µM (inactive) | > 100 µM (inactive) | > 100 µM (inactive) | > 100 µM (inactive) | > 100 µM (inactive) | 
3 | COc1cccc(CN(C(=O)/C=C\Sc2ccccc2)C(C)(C)C)c1 | 33 µM (inactive) | 54.8 µM (inactive) |  |  | > 100 µM (inactive) |  | 33 µM (inactive) | 44.6 | > 100 µM (inactive) |  | 20.5 µM (inactive) | 52.5 µM (inactive) |  |  | 90.2 µM (inactive) | > 100 µM (inactive) | 63.7 µM (inactive) | > 100 µM (inactive) |  | 2.61 µM (inactive)
4 | CSC1NNC2(C(=O)N1)c1ccccc1-c1ccccc12 (centres undefined) | > 10 µM (inactive) |  | > 10 µM (inactive) | > 10 µM (inactive) | > 10 µM (inactive) | > 10 µM (inactive) | > 10 µM (inactive) | > 10 |  | > 10 µM (inactive) | > 10 µM (inactive) |  | > 10 µM (inactive) | > 10 µM (inactive) | > 10 µM (inactive) | > 10 µM (inactive) | > 10 µM (inactive) | > 10 µM (inactive) | > 10 µM (inactive) | > 10 µM (inactive)
5 | COC(=O)c1ccc(NC(=O)c2cc3c(cc2Br)OCO3)o1 | > 100 µM (inactive) | > 100 µM (inactive) |  |  | > 100 µM (inactive) | 63.2 µM (inactive) | > 100 µM (inactive) | 94 | > 100 µM (inactive) | > 100 µM (inactive) | > 100 µM (inactive) | > 100 µM (inactive) | 0.471 µM (active) |  | 39.5 µM (inactive) | > 100 µM (inactive) | > 100 µM (inactive) | > 100 µM (inactive) | 15.7 µM (inactive) | 26.5 µM (inactive)
6 | CN(C)Cc1cc(/N=N/c2cccc(Cl)c2)ccc1O | 15.2 µM (inactive) |  | 11.4 µM (inactive) | 16.1 µM (inactive) | 9.1 µM (inactive) | 3.27 µM (inactive) | 16.6 µM (inactive) | 4.9 | 14.9 µM (inactive) | 18.8 µM (inactive) | 17.3 µM (inactive) | 13.6 µM (inactive) | 11.6 µM (inactive) | 16.7 µM (inactive) | 15.9 µM (inactive) | 17.4 µM (inactive) | 19.5 µM (inactive) | 14.3 µM (inactive) | 11.7 µM (inactive) | 6.78 µM (inactive)
7 | CN(C(=O)CCC(=O)O)c1ccccc1C(=O)O | > 100 µM (inactive) | > 100 µM (inactive) | > 100 µM (inactive) | > 100 µM (inactive) | > 100 µM (inactive) | > 100 µM (inactive) | > 100 µM (inactive) | > 100 | > 100 µM (inactive) | > 100 µM (inactive) | > 100 µM (inactive) | > 100 µM (inactive) | > 100 µM (inactive) | > 100 µM (inactive) | > 100 µM (inactive) | > 100 µM (inactive) | > 100 µM (inactive) | > 100 µM (inactive) |  | > 100 µM (inactive)
8 | O=C(O)C1CCCCC1C(=O)Nc1nc2ccccc2[nH]1 (centres undefined) | > 100 µM (inactive) | > 100 µM (inactive) | > 100 µM (inactive) | > 100 µM (inactive) | > 100 µM (inactive) |  | > 100 µM (inactive) | > 100 | > 100 µM (inactive) | > 100 µM (inactive) |  | > 100 µM (inactive) | > 100 µM (inactive) | > 100 µM (inactive) | > 100 µM (inactive) | > 100 µM (inactive) | > 100 µM (inactive) |  | > 100 µM (inactive) | > 100 µM (inactive)
9 | CCOC(=O)N1C(=S)C(C(=O)OC)(C(=O)OC)N=C1C | > 100 µM (inactive) | > 100 µM (inactive) |  | > 100 µM (inactive) |  | > 100 µM (inactive) | > 100 µM (inactive) | > 100 | > 100 µM (inactive) | > 100 µM (inactive) | > 100 µM (inactive) | > 100 µM (inactive) |  |  | > 100 µM (inactive) | > 100 µM (inactive) | > 100 µM (inactive) | > 100 µM (inactive) |  | > 100 µM (inactive)
10 | O=C1/C(=C\c2cccc(Oc3ccccc3)c2)S(=O)(=O)C(c2ccccc2)N1c1ccccc1Cl (centres undefined) | 15.4 µM (inactive) | 26 µM (inactive) |  | 20 µM (inactive) | 28.2 µM (inactive) | 14.5 µM (inactive) | 29 µM (inactive) | 31.2 | 33.7 µM (inactive) | 16.3 µM (inactive) | 13.9 µM (inactive) | 20.9 µM (inactive) |  | 32.6 µM (inactive) | 43.1 µM (inactive) | 29.6 µM (inactive) | 17.6 µM (inactive) | 49.3 µM (inactive) | 18.4 µM (inactive) | 17.9 µM (inactive)
11 | Oc1cc(-c2ccc3ccccc3c2)nc2ncc(Cl)cc12 |  | 7.64 µM (inactive) | 5.27 µM (inactive) | 1.98 µM (inactive) | 15.6 µM (inactive) | 3.23 µM (inactive) |  | 3.57 | 64.9 µM (inactive) | 2.99 µM (inactive) |  |  | 4.74 µM (inactive) | 4.05 µM (inactive) | 37.8 µM (inactive) | 12 µM (inactive) | 3.81 µM (inactive) | 10.2 µM (inactive) | 4.32 µM (inactive) | 5.31 µM (inactive)
12 | C/C(=C/CC[C@](C)(OC1OC(CO)C(O)C(O)C1O)[C@H]1CC[C@]2(C)[C@@H]1CC[C@@H]1[C@@]3(C)CC[C@H](O)C(C)(C)[C@@H]3C[C@H](O)[C@]12CO)CO (some centres undefined) | > 100 µM (inactive) |  | > 100 µM (inactive) | > 100 µM (inactive) | > 100 µM (inactive) | > 100 µM (inactive) | > 100 µM (inactive) | > 100 | > 100 µM (inactive) | > 100 µM (inactive) | > 100 µM (inactive) | > 100 µM (inactive) | > 100 µM (inactive) | > 100 µM (inactive) | > 100 µM (inactive) | > 100 µM (inactive) | > 100 µM (inactive) |  | > 100 µM (inactive) | > 100 µM (inactive)
13 | NCCCCC(NC(=O)C(N)Cc1ccc(O)cc1)C(=O)NC(Cc1ccc(O)cc1)C(=O)NC(CCCCN)C(=O)ON1C(=O)CCC1=O (centres undefined) (H-YKYK-OSu; configuration not given here) | > 100 µM (inactive) | > 100 µM (inactive) | > 100 µM (inactive) | > 100 µM (inactive) | > 100 µM (inactive) | > 100 µM (inactive) | > 100 µM (inactive) | > 100 | > 100 µM (inactive) | > 100 µM (inactive) | > 100 µM (inactive) |  |  | > 100 µM (inactive) | > 100 µM (inactive) | > 100 µM (inactive) | > 100 µM (inactive) | > 100 µM (inactive) |  | > 100 µM (inactive)
14 | N#C/C(N)=C(C#N)/N=C/NCCO | > 100 µM (inactive) | > 100 µM (inactive) | > 100 µM (inactive) | > 100 µM (inactive) | > 100 µM (inactive) | > 100 µM (inactive) | > 100 µM (inactive) | > 100 | > 100 µM (inactive) | > 100 µM (inactive) | > 100 µM (inactive) | > 100 µM (inactive) | > 100 µM (inactive) | > 100 µM (inactive) | > 100 µM (inactive) | > 100 µM (inactive) | > 100 µM (inactive) | > 100 µM (inactive) | > 100 µM (inactive) | 
15 | CCCCOc1c(C(=O)O)cc(Br)cc1C(=O)O | 91.6 µM (inactive) | > 100 µM (inactive) |  | > 100 µM (inactive) | > 100 µM (inactive) | > 100 µM (inactive) | > 100 µM (inactive) | > 100 | > 100 µM (inactive) | > 100 µM (inactive) |  | > 100 µM (inactive) | > 100 µM (inactive) | > 100 µM (inactive) | > 100 µM (inactive) | > 100 µM (inactive) | > 100 µM (inactive) | > 100 µM (inactive) | > 100 µM (inactive) | > 100 µM (inactive)
16 | CC1(C)CN(c2ccccc2)C(=O)C1OC(=O)[C@@]1(C)C[C@@H]2C=C[C@H]1C2 (some centres undefined) | 19.5 µM (inactive) | 17.8 µM (inactive) | 31 µM (inactive) | 34.3 µM (inactive) | 24.5 µM (inactive) | 6.15 µM (inactive) | 30 µM (inactive) | 22.1 | 28.1 µM (inactive) | 12.3 µM (inactive) | 20.3 µM (inactive) | 39.4 µM (inactive) | 27.5 µM (inactive) | 10.9 µM (inactive) | 33.9 µM (inactive) | 23.3 µM (inactive) | 19.1 µM (inactive) |  |  | 27.9 µM (inactive)
